Legend:
Assay type in all cases: cell-based
[1] = test system: SK-OV-3 human ovarian carcinoma cell line; assay: MTT cytotoxicity assay, SK-OV-3; conditions: Homo sapiens, SK-OV-3, 48 h, mean ± SD from three independent experiments
Procedure: (§1) The in vitro antiproliferative activity of the DHAA derivatives 3a–o and 4a–o against four human cancer cell lines (MGC-803 human gastric cancer cell line, CNE-2 human nasopharyngeal carcinoma cell line, SK-OV-3 human ovarian carcinoma cell line, NCI-H460 human lung cancer cell line) and the human normal liver cell line LO2 were evaluated by MTT (methyl thiazolytetrazolium) assay and compared with the parent compound DHAA and the positive control cisplatin in each panel.
(§2) The cytotoxicity of the compounds was evaluated against NCI-H460, MGC-803, SK-OV-3, CNE-2 and LO2 using an MTT assay. Cells were grown on 96-well micro-plates at a density of 4 × 10^3 cells per well in DMEM (dulbecco’s modified eagle medium) medium with 10% FBS (fetal bovine serum). The plates were incubated at 37 °C with 5% CO2. The cells were then exposed to different concentrations of target compounds and cisplatin and incubated for another 48 h. Control wells were formed by culture media with the maximum concentration of DMSO used in each assay (1‰). The cells were stained with 20 µL of MTT in an incubator for about 4 h. The medium was thrown away and replaced by […] DMSO. The absorbance (OD) value was read at 490 nm on an enzyme labeling instrument. Each experiment was repeated at least three times to obtain the mean values.

[2] = test system: MGC-803 human gastric cancer cell line; assay: MTT cytotoxicity assay, MGC-803; conditions: Homo sapiens, MGC-803, 48 h, mean ± SD from three independent experiments
Procedure: as §1, §2

[3] = test system: CNE-2 human nasopharyngeal carcinoma cell line; assay: MTT cytotoxicity assay, CNE-2; conditions: Homo sapiens, CNE-2, 48 h, mean ± SD from three independent experiments
Procedure: as §1, §2

[4] = test system: NCI-H460 human lung cancer cell line; assay: MTT cytotoxicity assay, NCI-H460; conditions: Homo sapiens, NCI-H460, 48 h, mean ± SD from three independent experiments
Procedure: as §1, §2

[5] = test system: human normal liver cell line LO2; assay: MTT cytotoxicity assay, normal LO2 cells; conditions: Homo sapiens, L02, 48 h, mean ± SD from three independent experiments
Procedure: as §1, §2

Compound | IC50 [1] [µM] | IC50 [2] [µM] | IC50 [3] [µM] | IC50 [4] [µM] | IC50 [5] [µM]
CC(C)c1ccc2c(c1)CCC1[C@](C)(C(=O)OCC(O)CNc3ccccc3)CCC[C@]21C (stereo partly drawn) [Compound 3a, (1R,4aS)-2-Hydroxy-3-(Phenylamino)Propyl-7-Isopropyl-1,4a-Dimethyl-1,2,3,4,4a,9,10,10a-Octahydrophenanthrene-1-Carboxylate] | 15.1 ± 0.57 | 7.1 ± 1.51 | 27.87 ± 0.25 | 18.6 ± 0.97 | > 100
Cc1ccccc1NCC(O)COC(=O)[C@]1(C)CCC[C@]2(C)c3ccc(C(C)C)cc3CCC12 (stereo partly drawn) [Compound 3b, (1R,4aS)-2-Hydroxy-3-(2-Methylphenylamino)Propyl-7-Isopropyl-1,4a-Dimethyl-1,2,3,4,4a,9,10, 10a-Octahydrophenanthrene-1-Carboxylate] | > 100 | 22.6 ± 2.71 | > 100 | > 100 | > 100
Cc1cccc(NCC(O)COC(=O)[C@]2(C)CCC[C@]3(C)c4ccc(C(C)C)cc4CCC23)c1 (stereo partly drawn) [Compound 3c, (1R,4aS)-2-Hydroxy-3-(3-Methylphenylamino)Propyl-7-Isopropyl-1,4a-Dimethyl-1,2,3,4,4a,9,10, 10a-Octahydrophenanthrene-1-Carboxylate] | 14.8 ± 4.03 | 12.3 ± 4.87 | 14.6 ± 0.19 | 20.1 ± 2.95 | 34.7 ± 0.45
Cc1ccc(NCC(O)COC(=O)[C@]2(C)CCC[C@]3(C)c4ccc(C(C)C)cc4CCC23)cc1 (stereo partly drawn) [Compound 3d, (1R,4aS)-2-Hydroxy-3-(4-Methylphenylamino)Propyl-7-Isopropyl-1,4a-Dimethyl-1,2,3,4,4a,9,10, 10a-Octahydrophenanthrene-1-Carboxylate] | 29.9 ± 0.8 | 21.8 ± 2.66 | 44.1 ± 2.89 | 44.8 ± 5.26 | > 100
COc1ccccc1NCC(O)COC(=O)[C@]1(C)CCC[C@]2(C)c3ccc(C(C)C)cc3CCC12 (stereo partly drawn) [Compound 3e, (1R,4aS)-2-Hydroxy-3-(2-Methoxyphenylamino)Propyl-7-Isopropyl-1,4a-Dimethyl-1,2,3,4,4a,9, 10,10a-Octahydrophenanthrene-1-Carboxylate] | 19.5 ± 2.23 | 28.5 ± 1.35 | 27.4 ± 0.51 | 26.1 ± 1.92 | 32.3 ± 1.56
COc1cccc(NCC(O)COC(=O)[C@]2(C)CCC[C@]3(C)c4ccc(C(C)C)cc4CCC23)c1 (stereo partly drawn) [Compound 3f, (1R,4aS)-2-Hydroxy-3-(3-Methoxyphenylamino)Propyl-7-Isopropyl-1,4a-Dimethyl-1,2,3,4,4a,9, 10,10a-Octahydrophenanthrene-1-Carboxylate] | 18.01 ± 0.09 | 18.4 ± 1.45 | 17.4 ± 4.32 | 21.9 ± 8.61 | > 100
COc1ccc(NCC(O)COC(=O)[C@]2(C)CCC[C@]3(C)c4ccc(C(C)C)cc4CCC23)cc1 (stereo partly drawn) [Compound 3g, (1R,4aS)-2-Hydroxy-3-(4-Methoxyphenylamino)Propyl-7-Isopropyl-1,4a-Dimethyl-1,2,3,4,4a,9, 10,10a-Octahydrophenanthrene-1-Carboxylate] | > 100 | 51.7 ± 1.85 | > 100 | > 100 | > 100
CC(C)c1ccc2c(c1)CCC1[C@](C)(C(=O)OCC(O)CNc3ccccc3F)CCC[C@]21C (stereo partly drawn) [Compound 3h, (1R,4aS)-2-Hydroxy-3-(2-Fluorophenylamino)Propyl-7-Isopropyl-1,4a-Dimethyl-1,2,3,4,4a,9,10, 10a-Octahydrophenanthrene-1-Carboxylate] | > 100 | 17.5 ± 3.51 | 45.7 ± 5.8 | 30.2 ± 3.4 | > 100
CC(C)c1ccc2c(c1)CCC1[C@](C)(C(=O)OCC(O)CNc3cccc(F)c3)CCC[C@]21C (stereo partly drawn) [Compound 3i, (1R,4aS)-2-Hydroxy-3-(3-Fluorophenylamino)Propyl-7-Isopropyl-1,4a-Dimethyl-1,2,3,4,4a,9,10, 10a-Octahydrophenanthrene-1-Carboxylatev] | > 100 | > 100 | > 100 | > 100 | > 100
CC(C)c1ccc2c(c1)CCC1[C@](C)(C(=O)OCC(O)CNc3ccc(F)cc3)CCC[C@]21C (stereo partly drawn) [Compound 3j, (1R,4aS)-2-Hydroxy-3-(4-Fluorophenylamino)Propyl-7-Isopropyl-1,4a-Dimethyl-1,2,3,4,4a,9,10, 10a-Octahydrophenanthrene-1-Carboxylate] | 18.9 ± 1.66 | 14.2 ± 1.7 | 20.7 ± 2.31 | 15.6 ± 1.45 | 28.7 ± 0.55
CC(C)c1ccc2c(c1)CCC1[C@](C)(C(=O)OCC(O)CNc3cccc(Cl)c3)CCC[C@]21C (stereo partly drawn) [Compound 3k, (1R,4aS)-2-Hydroxy-3-(3-Chlorophenylamino)Propyl-7-Isopropyl-1,4a-Dimethyl-1,2,3,4,4a,9,10, 10a-Octahydrophenanthrene-1-Carboxylate] | 25.1 ± 4.8 | 13.1 ± 2.66 | 18.2 ± 4.06 | 18.1 ± 2.33 | 35.3 ± 0.57
CC(C)c1ccc2c(c1)CCC1[C@](C)(C(=O)OCC(O)CNc3ccc(Cl)cc3)CCC[C@]21C (stereo partly drawn) [Compound 3l, (1R,4aS)-2-Hydroxy-3-(4-Chlorophenylamino)Propyl-7-Isopropyl-1,4a-Dimethyl-1,2,3,4,4a,9,10, 10a-Octahydrophenanthrene-1-Carboxylate] | > 100 | 34.48 ± 0.02 | > 100 | > 100 | > 100
CC(C)c1ccc2c(c1)CCC1[C@](C)(C(=O)OCC(O)CNc3cccc(Br)c3)CCC[C@]21C (stereo partly drawn) [Compound 3m, (1R,4aS)-2-Hydroxy-3-(3-Bromophenylamino)Propyl-7-Isopropyl-1,4a-Dimethyl-1,2,3,4,4a,9,10, 10a-Octahydrophenanthrene-1-Carboxylate] | 30.3 ± 0.59 | 16.5 ± 5.2 | 23.2 ± 2.78 | 19.6 ± 1.12 | > 100
CC(C)c1ccc2c(c1)CCC1[C@](C)(C(=O)OCC(O)CNc3ccc(Br)cc3)CCC[C@]21C (stereo partly drawn) [Compound 3n, (1R,4aS)-2-Hydroxy-3-(4-Bromophenylamino)Propyl-7-Isopropyl-1,4a-Dimethyl-1,2,3,4,4a,9,10, 10a-Octahydrophenanthrene-1-Carboxylate] | 19 ± 2.11 | 9.91 ± 7 | 17.9 ± 4.47 | 19.1 ± 5.23 | > 100
C#Cc1cccc(NCC(O)COC(=O)[C@]2(C)CCC[C@]3(C)c4ccc(C(C)C)cc4CCC23)c1 (stereo partly drawn) [Compound 3o, (1R,4aS)-2-Hydroxy-3-(3-Ethynylphenylamino)Propyl-7-Isopropyl-1,4a-Dimethyl-1,2,3,4,4a,9, 10,10a-Octahydrophenanthrene-1-Carboxylate] | 23.1 ± 2.23 | 13.4 ± 5.41 | 20 ± 1.09 | 22.3 ± 2.74 | > 100
CC(C)c1ccc2c(c1)CCC1[C@](C)(C(=O)OCC3CN(c4ccccc4)C(=O)O3)CCC[C@]21C (stereo partly drawn) [Compound 4a, (1R,4aS)-(2-Oxo-3-Phenyloxazolidin-5-yl)Methyl-7-Isopropyl-1,4a-Dimethyl-1,2,3,4,4a,9,10,10a-Octahydrophenanthrene-1-Carboxylate] | > 100 | 11 ± 4.41 | 9.69 ± 0.13 | 4.83 ± 0.77 | > 100
Cc1ccccc1N1CC(COC(=O)[C@]2(C)CCC[C@]3(C)c4ccc(C(C)C)cc4CCC23)OC1=O (stereo partly drawn) [Compound 4b, (1R,4aS)-(3-(2-Methylphenyl)-2-Oxooxazolidin-5-yl)Methyl-7-Isopropyl-1,4a-Dimethyl-1,2,3,4,4a,9,10,10a-Octahydrophenanthrene-1-Carboxylate] | > 100 | 25 ± 5.02 | > 100 | 27.7 ± 5.03 | > 100
Cc1cccc(N2CC(COC(=O)[C@]3(C)CCC[C@]4(C)c5ccc(C(C)C)cc5CCC34)OC2=O)c1 (stereo partly drawn) [Compound 4c, (1R,4aS)-(3-(3-Methylphenyl)-2-Oxooxazolidin-5-yl)Methyl-7-Isopropyl-1,4a-Dimethyl-1,2,3,4,4a,9,10,10a-Octahydrophenanthrene-1-Carboxylate] | > 100 | 10.5 ± 1.44 | 31.96 ± 0.23 | 9.13 ± 2.77 | 36.2 ± 2.68
Cc1ccc(N2CC(COC(=O)[C@]3(C)CCC[C@]4(C)c5ccc(C(C)C)cc5CCC34)OC2=O)cc1 (stereo partly drawn) [Compound 4d, (1R,4aS)-(3-(4-Methylphenyl)-2-Oxooxazolidin-5-yl)Methyl-7-Isopropyl-1,4a-Dimethyl-1,2,3,4,4a,9,10,10a-Octahydrophenanthrene-1-Carboxylate] | 19.7 ± 1.33 | 5.97 ± 0.87 | 21.1 ± 1.96 | 2.91 ± 2.38 | 30.6 ± 1.99
COc1ccccc1N1CC(COC(=O)[C@]2(C)CCC[C@]3(C)c4ccc(C(C)C)cc4CCC23)OC1=O (stereo partly drawn) [Compound 4e, (1R,4aS)-(3-(2-Methoxyphenyl)-2-Oxooxazolidin-5-yl)Methyl-7-Isopropyl-1,4a-Dimethyl-1,2,3,4,4a,9,10,10a-Octahydrophenanthrene-1-Carboxylate] | > 100 | 13.2 ± 1.15 | 20.5 ± 0.97 | 7.99 ± 6.35 | 40.6 ± 1.96

— publication PMC6213879, “Synthesis and Biological Evaluation of Novel Dehydroabietic Acid-Oxazolidinone Hybrids for Antitumor Properties” (International Journal of Molecular Sciences, 2018)
